From ChEMBL document CHEMBL1201862, “PubChem BioAssay data set” (2004)
The source made the active and inactive calls.

Assays:
Vero = test: viability of Vero cells under compound – cytotoxicity control for flavivirus capping enzyme inhibitors (AID 588742); assay type: functional; settings: Chlorocebus sabaeus
Genome polyprotein = Genome polyprotein (dengue virus type 2, UniProt P29990); test: flavivirus cap methylation enzyme inhibition – biochemical, confirmation dose response, primary screen (AID 588689); assay type: functional
HEK293 [1] = test: SAR Analysis of small molecule inhibitors of B-cell specific antigen receptor-induced NF-kB activation in a HEK-293T cell line using a luminescence assay - Set 2. [Related pubchem assays (depositor defined):AID435022, AID435025, AID489021]; assay type: functional, cell-based; settings: Homo sapiens
Jurkat = test: SAR Analysis of small molecule inhibitors of […] specific antigen receptor-induced NF-kB activation in a Jurkat cell line using a luminescence assay - Set 3. [Related pubchem assays (depositor defined):AID435022, AID435025, AID465]; assay type: functional, cell-based; settings: Homo sapiens
HEK293 [2] = test: HEK293T cell viability loss, resazurin readout – resazurin fluorescence, cytotoxicity control for NF-kB activator project, SAR follow-up (AID 493251); assay type: functional, cell-based; settings: Homo sapiens
[3] = target: Type-1 angiotensin II receptor (Homo sapiens, UniProt P30556); test: antagonism of angiotensin II type 1 receptor – cell-based, uHTS hits, selectivity assay for APJ receptor antagonist project, dose response (AID 463214); assay type: functional;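 note: antagonist potency against angiotensin II stimulated AT1 response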
Beta-galactosidase = Beta-galactosidase (Escherichia coli, UniProt Q8VNN2); test: PubChem AID 485352; assay type: functional
[4] = viability of PTEN-deleted HCT116 cells – cell-based, HCT116 PTEN knockout, dose response (AID 1047); assay type: functional;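 note: HCT116 colon tumor cells with PTEN knocked out; cells exposed to compound for 60 hours before readout; potency for loss of cell viability measured by luminescence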
[5] = Vero E6 cell cytotoxicity, dose response, cytotoxicity control for non-replicating M. tuberculosis project, secondary assay (AID 492998); assay type: functional, VeroE6; settings: Vero C1008
[6] = viability of HCT116 lacking mutant beta-catenin – cell-based, human colon tumor, dose response (AID 1045); assay type: functional;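 note: HCT116 colon tumor cells with beta catenin knocked out; cells exposed to compound for 60 hours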
[7] = Luminescence Cell-Based Dose Retest to Confirm Inhibitors of Cancer Stem Cells. [Related pubchem assays (depositor defined):AID2717, AID2721]; assay type: functional, Homo sapiens; settings: Homo sapiens
[8] = HepG2 cell cytotoxicity, dose response, cytotoxicity control for non-replicating M. tuberculosis project (AID 489018); assay type: functional; settings: Mycobacterium tuberculosis
[9] = non-specific 3'UTR reporter inhibition in Clone20-Shn3RL – cell-based, Renilla luciferase, cherry-picked, counter-screen for Shn3 inhibitor project, dose response (AID 624133); assay type: functional
[10] = THP-1 cell cytotoxicity, dose response, cytotoxicity control for non-replicating M. tuberculosis project (AID 489025); assay type: functional
[11] = target: NACHT, LRR and PYD domains-containing protein 1 (Homo sapiens, UniProt Q9C000); test: NALP1 inhibitors in yeast, dose response, luminescent (AID 488860); assay type: functional
Saccharomyces cerevisiae = test: S. cerevisiae Caspase-1/ASC signal blockers IC50, NALP1 inhibitor project selectivity test (AID 488863); assay type: functional, organism-based
A-375 [12] = test: MITF: Counter assay: A375 proliferation Measured in Cell-Based System Using Plate Reader - 2084-03_Inhibitor_Dose_DryPowder_Activity. [Related pubchem assays (depositor defined):AID488944]; assay type: functional; settings: Homo sapiens
[13] = target: T1, Microphthalmia-associated transcription factor (Homo sapiens, UniProt O75030); test: reducers of TRPM1 reporter luminescence, concentration series – cell-based, SK-MEL-5, cherry-picked, set 3, MITF inhibitor project, dose response (AID 493073); assay type: functional;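 note: SK-MEL-5 melanoma cells with luciferase driven by the MITF target TRPM1 promoter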
T1 sequence (O75030 whole entry): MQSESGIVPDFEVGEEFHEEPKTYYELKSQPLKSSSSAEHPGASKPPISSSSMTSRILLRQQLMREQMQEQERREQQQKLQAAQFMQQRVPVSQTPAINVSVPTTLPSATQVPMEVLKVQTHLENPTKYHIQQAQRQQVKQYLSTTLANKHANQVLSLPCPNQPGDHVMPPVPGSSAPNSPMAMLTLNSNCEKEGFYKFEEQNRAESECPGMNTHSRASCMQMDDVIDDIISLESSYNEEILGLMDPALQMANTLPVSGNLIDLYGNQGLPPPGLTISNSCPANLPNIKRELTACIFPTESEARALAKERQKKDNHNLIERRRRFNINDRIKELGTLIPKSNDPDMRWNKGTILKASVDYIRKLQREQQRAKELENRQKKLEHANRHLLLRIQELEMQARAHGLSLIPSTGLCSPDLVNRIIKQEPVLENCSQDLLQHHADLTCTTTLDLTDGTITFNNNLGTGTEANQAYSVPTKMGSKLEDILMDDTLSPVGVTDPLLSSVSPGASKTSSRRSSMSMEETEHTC

A-375 [14] = test: proliferation inhibition in MITF-low A375 cells – cell-based, cherry-pick samples, set 2, counter-screen for MITF modulator project, dose response (AID 540335); assay type: functional; settings: Homo sapiens
[15] = loss of viability in HepG2 cells – cell-based, CellTiter-Glo, cherry-picked, cytotoxicity control for Shn3 inhibitor project, dose response (AID 624134); assay type: functional
[16] = MIN6 cell viability loss – mouse insulinoma, cytotoxicity control, dose response (AID 2122); assay type: functional;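 note: confirmatory high-throughput counterscreen run to flag cytotoxic compounds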
[17] = reduction of Shn3 3'UTR-driven luciferase in osteoblasts – cell-based, Clone20 osteoblasts, firefly luciferase, cherry-picked, dose response (AID 624132); assay type: functional;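 note: firefly luciferase luminescence from reporter carrying the Shn3 3'UTR in osteoblasts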
[18] = decrease of insulin promoter-GFP reporter – imaging, high-content screening, mouse beta cells (AID 1628); assay type: functional; settings: MIN6
cells = assay type: functional

Chain of Type-1 angiotensin II receptor (P30556 whole entry): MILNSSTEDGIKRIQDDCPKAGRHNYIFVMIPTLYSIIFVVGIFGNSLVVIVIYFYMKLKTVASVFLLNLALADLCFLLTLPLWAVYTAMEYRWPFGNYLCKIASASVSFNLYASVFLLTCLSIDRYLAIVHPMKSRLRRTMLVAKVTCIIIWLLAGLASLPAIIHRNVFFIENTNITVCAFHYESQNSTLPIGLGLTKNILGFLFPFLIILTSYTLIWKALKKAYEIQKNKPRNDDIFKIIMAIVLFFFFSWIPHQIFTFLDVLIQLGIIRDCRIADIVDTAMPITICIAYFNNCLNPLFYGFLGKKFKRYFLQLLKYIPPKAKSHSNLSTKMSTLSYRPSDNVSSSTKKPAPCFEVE
Chain of NACHT, LRR and PYD domains-containing protein 1 (Q9C000 1-1212 limits assumed): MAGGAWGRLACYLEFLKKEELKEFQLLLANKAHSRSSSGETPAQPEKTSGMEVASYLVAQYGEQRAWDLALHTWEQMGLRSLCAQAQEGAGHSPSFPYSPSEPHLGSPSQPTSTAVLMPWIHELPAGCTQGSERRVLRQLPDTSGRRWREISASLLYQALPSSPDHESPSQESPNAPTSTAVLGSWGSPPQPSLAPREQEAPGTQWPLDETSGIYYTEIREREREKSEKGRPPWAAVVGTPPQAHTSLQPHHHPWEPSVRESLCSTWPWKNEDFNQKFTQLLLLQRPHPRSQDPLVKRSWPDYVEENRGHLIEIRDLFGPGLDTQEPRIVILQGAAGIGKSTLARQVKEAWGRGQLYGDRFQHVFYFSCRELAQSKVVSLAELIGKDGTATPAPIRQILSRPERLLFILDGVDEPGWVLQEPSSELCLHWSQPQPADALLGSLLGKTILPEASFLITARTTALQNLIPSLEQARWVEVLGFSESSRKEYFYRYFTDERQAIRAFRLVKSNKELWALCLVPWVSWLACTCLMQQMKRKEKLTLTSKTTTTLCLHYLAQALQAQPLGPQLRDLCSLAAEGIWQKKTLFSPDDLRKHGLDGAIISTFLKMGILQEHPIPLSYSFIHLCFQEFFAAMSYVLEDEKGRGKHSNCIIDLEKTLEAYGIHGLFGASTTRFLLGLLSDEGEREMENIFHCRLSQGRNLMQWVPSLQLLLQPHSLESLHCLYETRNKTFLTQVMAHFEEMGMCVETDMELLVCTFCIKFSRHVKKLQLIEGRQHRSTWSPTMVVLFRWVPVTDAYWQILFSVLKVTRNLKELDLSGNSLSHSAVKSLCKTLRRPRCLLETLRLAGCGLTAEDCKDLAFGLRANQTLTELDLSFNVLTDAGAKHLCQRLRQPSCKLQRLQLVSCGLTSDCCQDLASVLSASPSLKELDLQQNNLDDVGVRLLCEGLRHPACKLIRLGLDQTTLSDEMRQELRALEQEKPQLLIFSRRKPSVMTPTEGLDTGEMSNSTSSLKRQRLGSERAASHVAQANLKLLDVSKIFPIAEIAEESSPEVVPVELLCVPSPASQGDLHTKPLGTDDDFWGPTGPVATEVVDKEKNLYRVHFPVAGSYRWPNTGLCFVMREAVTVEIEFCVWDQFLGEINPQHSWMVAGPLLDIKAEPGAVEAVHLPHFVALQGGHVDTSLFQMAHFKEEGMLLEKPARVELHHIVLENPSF
Chain of NACHT, LRR and PYD domains-containing protein 1 (Q9C000 1213-1473 limits assumed): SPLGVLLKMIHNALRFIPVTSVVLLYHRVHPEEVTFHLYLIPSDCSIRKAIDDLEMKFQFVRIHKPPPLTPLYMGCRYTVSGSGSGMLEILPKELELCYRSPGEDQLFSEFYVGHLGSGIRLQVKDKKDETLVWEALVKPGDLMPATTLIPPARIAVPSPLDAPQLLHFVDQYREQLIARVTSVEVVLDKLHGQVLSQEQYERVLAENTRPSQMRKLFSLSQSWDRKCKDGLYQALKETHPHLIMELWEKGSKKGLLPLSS
Chain of Genome polyprotein (P29990 2492-3391 limits assumed): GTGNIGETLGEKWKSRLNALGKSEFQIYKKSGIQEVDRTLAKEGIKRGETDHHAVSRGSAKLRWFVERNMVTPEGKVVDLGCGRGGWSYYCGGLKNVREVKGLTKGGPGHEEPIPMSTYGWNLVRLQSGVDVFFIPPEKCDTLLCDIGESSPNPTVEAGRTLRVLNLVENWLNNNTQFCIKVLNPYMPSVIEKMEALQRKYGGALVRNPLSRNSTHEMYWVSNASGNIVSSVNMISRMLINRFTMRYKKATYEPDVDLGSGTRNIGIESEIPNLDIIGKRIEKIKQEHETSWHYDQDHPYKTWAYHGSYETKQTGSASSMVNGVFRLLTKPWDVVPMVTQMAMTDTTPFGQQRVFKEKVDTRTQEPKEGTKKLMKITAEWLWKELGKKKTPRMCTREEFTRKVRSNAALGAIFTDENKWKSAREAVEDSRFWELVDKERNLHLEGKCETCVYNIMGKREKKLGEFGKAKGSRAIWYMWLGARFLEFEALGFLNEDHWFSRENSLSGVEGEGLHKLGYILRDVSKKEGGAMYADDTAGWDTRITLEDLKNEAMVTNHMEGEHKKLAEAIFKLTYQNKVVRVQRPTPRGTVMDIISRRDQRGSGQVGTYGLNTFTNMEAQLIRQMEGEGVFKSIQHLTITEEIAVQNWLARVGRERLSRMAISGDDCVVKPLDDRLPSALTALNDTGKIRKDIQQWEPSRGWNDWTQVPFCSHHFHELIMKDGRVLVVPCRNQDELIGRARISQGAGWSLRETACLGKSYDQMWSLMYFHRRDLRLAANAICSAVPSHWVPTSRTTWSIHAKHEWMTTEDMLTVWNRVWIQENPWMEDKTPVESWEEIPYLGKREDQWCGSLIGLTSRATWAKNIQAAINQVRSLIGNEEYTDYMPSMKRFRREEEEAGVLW
Chain of Beta-galactosidase (Q8VNN2 whole entry): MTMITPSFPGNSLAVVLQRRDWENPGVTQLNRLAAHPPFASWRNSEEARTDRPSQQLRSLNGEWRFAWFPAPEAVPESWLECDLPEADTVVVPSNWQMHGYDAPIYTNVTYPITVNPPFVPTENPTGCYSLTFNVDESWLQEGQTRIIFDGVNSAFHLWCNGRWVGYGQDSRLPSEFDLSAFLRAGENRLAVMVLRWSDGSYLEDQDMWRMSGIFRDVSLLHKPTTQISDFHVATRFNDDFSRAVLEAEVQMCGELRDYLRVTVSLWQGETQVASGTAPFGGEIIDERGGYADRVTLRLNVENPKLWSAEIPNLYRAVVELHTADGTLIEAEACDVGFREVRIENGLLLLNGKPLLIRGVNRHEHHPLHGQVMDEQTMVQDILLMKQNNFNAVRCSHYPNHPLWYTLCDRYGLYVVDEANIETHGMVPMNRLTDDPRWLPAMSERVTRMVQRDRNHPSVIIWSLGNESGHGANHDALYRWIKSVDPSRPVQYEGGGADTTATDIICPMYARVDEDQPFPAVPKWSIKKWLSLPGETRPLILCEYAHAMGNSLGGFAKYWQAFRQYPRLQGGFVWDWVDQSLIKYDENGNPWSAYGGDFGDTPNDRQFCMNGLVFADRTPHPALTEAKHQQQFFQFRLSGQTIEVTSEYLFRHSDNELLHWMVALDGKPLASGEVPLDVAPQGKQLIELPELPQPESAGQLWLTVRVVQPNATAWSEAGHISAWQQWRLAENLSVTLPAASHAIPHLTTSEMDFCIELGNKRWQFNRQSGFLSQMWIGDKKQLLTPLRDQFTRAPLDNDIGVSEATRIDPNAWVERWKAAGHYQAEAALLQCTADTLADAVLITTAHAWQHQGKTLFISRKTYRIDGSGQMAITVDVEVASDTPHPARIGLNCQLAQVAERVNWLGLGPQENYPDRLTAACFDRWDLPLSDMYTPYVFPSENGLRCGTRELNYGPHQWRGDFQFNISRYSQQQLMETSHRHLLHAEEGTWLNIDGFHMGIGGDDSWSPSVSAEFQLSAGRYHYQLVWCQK

For `O=C1NC(=S)NC(=O)C1=Cc1c(Cl)cccc1Cl`, the CC50 (Vero) was > 40 µM (active) and the IC50 (Genome polyprotein) was 26.9 µM (active).
With `CNC(=O)CCc1nc(-c2ccc(F)cc2)no1` the IC50 (HEK293 [1]) was > 80 µM (inactive), the IC50 (Jurkat) was > 80 µM (inactive) and the IC50 (HEK293 [2]) was > 80 µM (inactive).
In the case of `Cc1ccc(C)c(NCC(=O)c2ccc(Cl)cc2)c1`, the IC50 [3] is reported as 14.4 µM (active) and the EC50 (Beta-galactosidase) is reported as > 40 µM (inactive).
With `CCCOc1ccc(C(=O)C(CN2CCCC2)c2ccccc2)cc1` (centres undefined) the EC50 [4] was 2.19 µM (active), the CC50 [5] was 9.02 µM (active) and the EC50 [6] was 1.96 µM (active). The AC50 [7] was 1.76 µM (active), the CC50 [8] was 13.3 µM (active) and the AC50 [9] was 13.2 µM (active). For the same molecule, the CC50 [10] was 6.32 µM (active), the IC50 [11] was 10.2 µM (active) and the IC50 (Saccharomyces cerevisiae) was 5.8 µM (active). The AC50 (A-375 [12]) was > 35 µM (active), the AC50 [13] was 8.62 µM (active) and the AC50 (A-375 [14]) was > 35 µM (active). The AC50 [15] was 22.6 µM (active), the IC50 [16] was 3.13 µM (active) and the AC50 [17] was 4.84 µM (active). For the same molecule, the IC50 [18] was 3.73 µM (active) and the IC50 (cells) was 12.7 µM (active).
